Values joined by “and” are separate entries in the source; they are usually repeats but may differ in a detail not shown here. Equal entries are not always repeated. “Also recorded” adds a separate entry of the source. Structures can show the parent of a compound that is named as a salt.
Legend:
Format in all cases: in vivo
Swiss mice CD1 [1] = experiment: forced swim test, Alverine and fluoxetine administered intraperitoneally to mice (Example 3, second test); settings: for immobility time, individual animals / immobility time, Mean: 30 minutes prior to the test; for immobility time, Mean: n = 10
Method: These are Swiss mice CD1 (CD-1® (ICR) IGS (Charles River France) weighing between 25 and 35 g. […] They are placed 15 to 20 per cage, over an acclimatising period of at least 5 days prior to the tests. They are identified by marking on the fur. […] The mice were divided into two test comprising six groups of 10 mice each. For the second test: The first group is the control group: it is treated only by excipient. […] The doses are expressed in terms of free active substances. The test substances are prepared extemporaneously in a saline solution. The treatments are co-administered 30 minutes prior to the test in a coded and random order intraperitoneally with a volume of 10 ml/kg (5 ml/kg for each administration). […] The total duration of immobility is measured over the last four minutes of the test, six minutes in total. A mouse is deemed immobile when it ceases struggling and floats in the water without movements superfluous to those allowing it to keep its head above water. A drop in immobility time is the reflection of an antidepressant effect. The forced swim test is a pre-clinical behavioural model, which has good predictive validity and is widely employed for determining the efficacy of antidepressant medications (Borsini and Meli, 1988). The results are expressed in total duration of immobility in seconds and as a percentage of variation of the total duration of immobility calculated from the average value of the control group. The statistical significance between two treated groups is determined by using a Student test (P<0.05) The data are analysed using <<SigmaStat>> software.

Swiss mice CD1 [2] = experiment: forced swim test, Alverine administered orally to mice (Example 2); set-up: key to Dunnett test vs control group: * indicates a significant difference for p < 0.05 (Dunnett test); ns indicates an insignificant result; settings: for immobility time, individual animals / immobility time, Mean: 60 minutes prior to the test; for immobility time, Mean: N = 10
Swiss mice CD1 [3] = experiment: forced swim test, Alverine administered intraperitoneally to mice (Example 1); set-up: key to Dunnett test vs control group: * indicates a significant difference for p < 0.05 (Dunnett test); ns indicates an insignificant result; settings: for immobility time, individual animals / immobility time, Mean: 30 minutes prior to the test; for immobility time, Mean: N = 10
Method: To establish the advantages according to the present invention a study was carried out to 50 mice. They were divided into 5 groups of 10 mice each. These are Swiss mice CD1 (CD-1® (ICR) IGS (Charles River France) weighing between 25 and 35 g.
They were placed in a room at a temperature of between 19.5 and 24.5° C. and a relative humidity of 45 to 65% with a light/dark cycle of 12 h, ad libitum access to filtered water and pellets of laboratory-standard food.
They are placed 15 to 20 per cage, over an acclimatising period of at least 5 days prior to the tests. They are identified by marking on the fur.
The substance to be tested is Alverine citrate (Sigma, in the form of dry powder, with a salt/base ratio of 1.68) comparatively to imipramine chlorhydrate (Sigma, in the form of dry powder, with a salt/base ratio of 1.13).
The first group is the control group: it is treated only by excipient.
The second group is treated with Alverine at a dose of 3 mg/kg
The third group is treated with Alverine at a dose of 10 mg/kg
The fourth group is treated with Alverine at a dose of 30 mg/kg
The fifth group is treated with imipramine (tricyclic antidepressant) at a dose of 10 mg/kg
The doses are expressed in terms of free active substances. The substances are prepared extemporaneously in the excipient. The treatments are administered 30 minutes prior to the test in a coded and random order intraperitoneally with a volume of 10 ml/kg.
Thirty minutes following administration the five groups of mice are subjected to the forced swim test, in a vertical Plexiglas cylinder (height 24 cm, diameter 9 cm) containing water (height 6 cm, temperature 18-22° C.). The total duration of immobility is measured over the last four minutes of the test, six minutes in total. A mouse is deemed immobile when it ceases struggling and floats in the water without movements superfluous to those allowing it to keep its head above water. A drop in immobility time is the reflection of an antidepressant effect.
The forced swim test is a pre-clinical behavioural model, which has good predictive validity and is widely employed for determining the efficacy of antidepressant medications (Borsini and Meli, 1988).
The results are expressed in total duration of immobility in seconds and as a percentage of variation of the total duration of immobility calculated from the average value of the control group.
The statistical significance between the treated groups and the control group is determined by a Dunnett test using the residual variation according to analysis of the variance (P<0.05). The data are analysed using <<SigmaStat>> software.

Swiss mice CD1 [4] = experiment: observation of secondary effects in mice treated orally (Example 2); settings: treated orally, 10, 30, 100 mg/kg
[5] = Alverine 3 mg/kg intraperitoneally
[6] = Alverine 10 mg/kg intraperitoneally
[7] = Alverine citrate 10 mg/kg orally
[8] = Alverine citrate 30 mg/kg orally
[9] = Alverine citrate 100 mg/kg orally
[10] = Alverine citrate 3 mg/kg intraperitoneally
[11] = Alverine citrate 10 mg/kg intraperitoneally
[12] = Alverine citrate 30 mg/kg intraperitoneally

CCN(CCCc1ccccc1)CCCc1ccccc1 [Alverine citrate, N-ethyl-3,3′-diphenyldipropylamine]
% of variation of immobility time vs control group (Swiss mice CD1 [1]; [5]): −37%
Dunnett test vs control group (Swiss mice CD1 [1]; [5]): * (* indicates a significant difference for p < 0.05 (Dunnett test))
immobility time, individual animals (Swiss mice CD1 [1]; [5]): 119 sec and 138 sec and 117 sec (2×) and 110 sec and 73 sec and 47 sec and 124 sec and 72 sec and 32 sec
immobility time, Mean (Swiss mice CD1 [1]; [5]): 94.9 s
% of variation of immobility time vs control group (Swiss mice CD1 [1]; [6]): −49%
Dunnett test vs control group (Swiss mice CD1 [1]; [6]): * (* indicates a significant difference for p < 0.05 (Dunnett test))
immobility time, individual animals (Swiss mice CD1 [1]; [6]): 63 sec and 75 sec (2×) and 77 sec and 46 sec and 6 sec and 113 sec and 89 sec and 104 sec and 125 sec
immobility time, Mean (Swiss mice CD1 [1]; [6]): 77.3 s
decrease in the duration of immobilisation as compared to the control group (in words) (Swiss mice CD1 [1]; tested alone at 3 mg/kg intraperitoneally): statistically significant decrease
% of variation of immobility time vs control group (Swiss mice CD1 [2]; [7]): −30%
Dunnett test vs control group (Swiss mice CD1 [2]; [7]): ns
immobility time, individual animals (Swiss mice CD1 [2]; [7]): 86 s and 95 s and 104 s and 111 s and 126 s and 108 s and 78 s and 115 s and 106 s and 113 s
immobility time, Mean (Swiss mice CD1 [2]; [7]): 104.2 s
% of variation of immobility time vs control group (Swiss mice CD1 [2]; [8]): −43%
Dunnett test vs control group (Swiss mice CD1 [2]; [8]): * (* indicates a significant difference for p < 0.05 (Dunnett test))
immobility time, individual animals (Swiss mice CD1 [2]; [8]): 104 sec and 80 sec and 64 sec and 70 sec and 105 sec (3×) and 41 sec and 63 sec and 113 sec
immobility time, Mean (Swiss mice CD1 [2]; [8]): 85.0 s
% of variation of immobility time vs control group (Swiss mice CD1 [2]; [9]): −60%
Dunnett test vs control group (Swiss mice CD1 [2]; [9]): * (* indicates a significant difference for p < 0.05 (Dunnett test))
immobility time, individual animals (Swiss mice CD1 [2]; [9]): 52 s and 129 s and 67 s and 6 s and 105 s and 75 s and 81 s and 5 s and 37 s and 32 s
immobility time, Mean (Swiss mice CD1 [2]; [9]): 58.9 s
antidepressant effect (in words) (Swiss mice CD1 [2]; administered orally, 10 to 100 mg/kg): antidepressant effect related to the dose; also recorded: significant antidepressant effect in mice
immobility time compared with mice treated at 10 mg/kg of imipramine (Swiss mice CD1 [3]; 10 mg/kg intraperitoneally): comparable
% of variation of immobility time vs control group (Swiss mice CD1 [3]; [10]): −15%
Dunnett test vs control group (Swiss mice CD1 [3]; [10]): ns
immobility time, individual animals (Swiss mice CD1 [3]; [10]): 128 s and 82 s and 151 s and 132 s and 127 s and 88 s and 85 s and 99 s and 93 s and 118 s
immobility time, Mean (Swiss mice CD1 [3]; [10]): 110.3 s
% of variation of immobility time vs control group (Swiss mice CD1 [3]; [11]): −53%
Dunnett test vs control group (Swiss mice CD1 [3]; [11]): * (* indicates a significant difference for p < 0.05 (Dunnett test))
immobility time, individual animals (Swiss mice CD1 [3]; [11]): 29 s and 86 s and 28 s and 30 s and 90 s and 99 s and 65 s and 129 s and 57 s and 3 s
immobility time, Mean (Swiss mice CD1 [3]; [11]): 61.6 s
% of variation of immobility time vs control group (Swiss mice CD1 [3]; [12]): −80%
Dunnett test vs control group (Swiss mice CD1 [3]; [12]): * (* indicates a significant difference for p < 0.05 (Dunnett test))
immobility time, individual animals (Swiss mice CD1 [3]; [12]): 97 sec and 3 sec and 66 sec and 36 sec and 0 sec and 15 sec and 7 sec (2×) and 16 sec and 12 sec
immobility time, Mean (Swiss mice CD1 [3]; [12]): 25.9 s
antidepressant effect (in words) (Swiss mice CD1 [3]; injected intraperitoneally, 3 to 30 mg/kg): antidepressant effect related to the dose; also recorded: significant antidepressant effect in mice and equal to that of Imipramine, at comparable doses
secondary effect (Swiss mice CD1 [4]): no secondary effect was observed

Reference: patent publication US20050065218A1, “Utilization of alverine, alone or in combination with tricyclic antidepressant or a specific serotonin reuptake inhibitor for the treatment of depression” (priority 2003, published 2005)
